# Reference: patent publication US20250144067A1, “PERSONALIZED STARVATION THERAPY FOR CANCER” (Faeth Therapeutics, Inc., priority 2021, published 2025)
# Where a name gives a salt, the structure may show the parent alone. Read-outs that look alike come from different tables or passages of the source.
# Tests used:
# [1] = tested on: NCI-H292 lung cancer cells; assay: FDA drug screening, complete media vs cholesterol-free media without statin (TABLE 1); type: cell-based, human
# [2] = tested on: NCI-H292 lung cancer cells; assay: FDA drug screening, complete media vs cholesterol-free media with simvastatin (TABLE 2); type: cell-based, human
# [3] = NCI-H292 cells, cholesterol-free media without statin
# [4] = complete vs cholesterol-free media, greater than 0 enhanced anti-cancer activity, about 0 neutral, below 0 antagonists
# [5] = NCI-H292 cells, FDA drug library screen, cholesterol-free media with simvastatin 0.04 μM
# [6] = complete media minus cholesterol-free media + simvastatin, >0 enhanced anti-cancer activity, about 0 neutral, <0 antagonist
# [7] = NCI-H292 cells, cholesterol-free media without statin, FDA drug library screen
# [8] = NCI-H292 cells, complete media, FDA drug library screen
# [9] = complete vs cholesterol-free media, >0 enhanced anti-cancer activity, about 0 neutral, <0 antagonist
# [10] = NCI-H292 cells, FDA drug library screen, complete media
# [11] = complete media vs cholesterol-free media + simvastatin (0.04 μM), >0 enhanced anti-cancer activity, about 0 neutral, <0 antagonist
# [12] = Complete minus Cholesterol-free, >0 enhanced anti-cancer activity, about 0 neutral, <0 antagonist
# [13] = NCI-H292 cells, FDA library drug in cholesterol-free media with simvastatin 0.04 μM
# [14] = NCI-H292 cells, FDA library drug in complete media
# [15] = NCI-H292 cells, cholesterol-free media with simvastatin 0.04 μM, cell growth value in FDA drug screen
# [16] = NCI-H292 cells, complete media, cell growth value in FDA drug screen
# [17] = Complete minus Cholesterol-free, greater than 0 enhanced anti-cancer activity, about 0 neutral, below 0 antagonist
# [18] = NCI-H292 cells, FDA drug library screen, cholesterol-free media without statin
# [19] = NCI-H292 cells, cholesterol-free media with simvastatin 0.04 μM, FDA drug library screen (TABLE 2)
# [20] = NCI-H292 cells, complete media, FDA drug library screen (TABLE 2)
# [21] = complete media minus cholesterol-free media + simvastatin (0.04 μM), >0 enhanced anti-cancer activity, about 0 neutral, <0 antagonist
# [22] = NCI-H292 cells, drug in cholesterol-free media with simvastatin 0.04 μM
# [23] = NCI-H292 cells, drug in complete media
# [24] = Complete minus Cholesterol-free, greater than 0 enhanced anti-cancer activity, about 0 neutral, below 0 antagonists
# [25] = NCI-H292 cells in cholesterol-free media without statin
# [26] = NCI-H292 cells in complete media
smiles,measurement,setting,value
OCCOCCN1CCN(C(c2ccccc2)c2ccc(Cl)cc2)CC1 (stereo not drawn) [Hydroxyzine (dihydrochloride)],Cholesterol-free,[1]; [3],1.474
same,Complete,"[1]; NCI-H292 cells, complete media",1.128
same,Difference,[1]; [4],−0.35
same,Cholesterol-free media + simvastatin (0.04 μM),[2]; [5],0.6407
same,Difference,[2]; [6],0.53
O=C(O)c1cc2ccccc2c(Cc2c(O)c(C(=O)O)cc3ccccc23)c1O.OCCOCCN1CCN(C(c2ccccc2)c2ccc(Cl)cc2)CC1 [Hydroxyzine (pamoate)],Cholesterol-free,[1]; [7],0.6403
same,Complete,[1]; [8],0.9622
same,Difference,[1]; [9],0.32
same,Cholesterol-free media + simvastatin (0.04 μM),[2]; [5],1.16
same,Complete Media,[2]; [10],1.053
same,Difference,[2]; [11],−0.11
C[C@H](CCC(=O)O)[C@H]1CC[C@H]2[C@@H]3C[C@H](O)[C@@H]4C[C@H](O)CC[C@]4(C)[C@H]3CC[C@]12C [Hyodeoxycholic acid],Cholesterol-free,[1]; [3],1.462
same,Complete,"[1]; NCI-H292 cells, complete media",1.016
same,Difference,[1]; [4],−0.45
same,Cholesterol-free media + simvastatin (0.04 μM),[2]; [5],0.7549
same,Complete Media,[2]; [10],0.9966
same,Difference,[2]; [6],0.24
O=c1c(O[C@@H]2O[C@H](CO)[C@H](O)[C@H](O)[C@H]2O)c(-c2ccc(O)c(O)c2)oc2cc(O)cc(O)c12 [Hyperoside],Difference,[1]; [12],−0.03
same,Cholesterol-free,[1]; [7],0.9192
same,Complete,[1]; [8],0.8906
same,Cholesterol-free media + simvastatin (0.04 μM),[2]; [5],0.9665
same,Complete Media,[2]; [10],0.8144
same,Difference,[2]; [11],−0.15
CCCCCN(C)CCC(O)(P(=O)(O)O)P(=O)(O)O [Ibandronate (Sodium Monohydrate)],Difference,[1]; [12],−0.03
same,Cholesterol-free,[1]; [7],1.101
same,Complete,[1]; [8],1.074
same,Cholesterol-free media + simvastatin (0.04 μM),[2]; [13],1.077
same,Complete Media,[2]; [14],0.796
same,Difference,[2]; [11],−0.28
C=CC(=O)N1CCC[C@@H](n2nc(-c3ccc(Oc4ccccc4)cc3)c3c(N)ncnc32)C1 [Ibrutinib],Difference,[1]; [12],−0.07
same,Cholesterol-free,[1]; [7],0.4459
same,Complete,[1]; [8],0.3765
same,Cholesterol-free media + simvastatin (0.04 μM),[2]; [5],0.5962
same,Complete Media,[2]; [10],0.4594
same,Difference,[2]; [11],−0.14
CC(C)C(=O)c1c(C(C)C)nn2ccccc12 [Ibudilast],Difference,[1]; [12],0.04
same,Cholesterol-free,[1]; [7],1.126
same,Complete,[1]; [8],1.165
same,Cholesterol-free media + simvastatin (0.04 μM),[2]; [15],1.245
same,Complete Media,[2]; [16],1.273
same,Difference,[2]; [6],0.03
CC(C)Cc1ccc(C(C)C(=O)OCc2ccccn2)cc1 (stereo not drawn) [Ibuprofen piconol],Difference,[1]; [17],−0.18
same,Cholesterol-free,[1]; [18],1.26
same,Complete,[1]; [10],1.082
same,Cholesterol-free media + simvastatin (0.04 μM),[2]; [13],1.357
same,Complete Media,[2]; [14],0.8958
same,Difference,[2]; [11],−0.46
CC(C)Cc1ccc(C(C)C(=O)O)cc1 (stereo not drawn) [Ibuprofen],Cholesterol-free,[1]; [3],1.419
same,Complete,"[1]; NCI-H292 cells, complete media",1.058
same,Difference,[1]; [4],−0.36
same,Cholesterol-free media + simvastatin (0.04 μM),[2]; [13],1.512
same,Difference,[2]; [11],−0.36
C#Cc1cccc(Nc2ncnc3cc4c(cc23)OCCOCCOCCO4)c1 [Icotinib (Hydrochloride)],Difference,[1]; [12],0.05
same,Cholesterol-free,[1]; [7],0.2697
same,Complete,[1]; [8],0.324
same,Cholesterol-free media + simvastatin (0.04 μM),[2]; [19],0.5866
same,Complete Media,[2]; [20],0.5343
same,Difference,[2]; [21],−0.05
C#Cc1cccc(Nc2ncnc3cc4c(cc23)OCCOCCOCCO4)c1 [Icotinib],Difference,[1]; [12],−0.05
same,Cholesterol-free,[1]; [7],0.4295
same,Complete,[1]; [8],0.3774
same,Cholesterol-free media + simvastatin (0.04 μM),[2]; [15],0.6476
same,Complete Media,[2]; [16],0.6925
same,Difference,[2]; [6],0.04
CC(=O)[C@]1(O)Cc2c(O)c3c(c(O)c2[C@@H](O[C@H]2C[C@H](N)[C@H](O)[C@H](C)O2)C1)C(=O)c1ccccc1C3=O [Idarubicin (hydrochloride)],Difference,[1]; [12],−0.01
same,Cholesterol-free,[1]; [7],−0.02296
same,Complete,[1]; [8],−0.02941
same,Cholesterol-free media + simvastatin (0.04 μM),[2]; [19],0.008408
same,Complete Media,[2]; [20],0.002721
same,Difference,[2]; [21],−0.01
COC1=C(OC)C(=O)C(CCCCCCCCCCO)=C(C)C1=O [Idebenone],Difference,[1]; [12],−0.21
same,Cholesterol-free,[1]; [3],1.239
same,Complete,"[1]; NCI-H292 cells, complete media",1.029
same,Cholesterol-free media + simvastatin (0.04 μM),[2]; [15],1.049
same,Complete Media,[2]; [16],1.125
same,Difference,[2]; [6],0.08
CC[C@H](Nc1ncnc2[nH]cnc12)c1nc2cccc(F)c2c(=O)n1-c1ccccc1 [Idelalisib],Difference,[1]; [17],−0.13
same,Cholesterol-free,[1]; [18],1.096
same,Complete,[1]; [10],0.9672
same,Cholesterol-free media + simvastatin (0.04 μM),[2]; [13],1.507
same,Complete Media,[2]; [14],1.219
same,Difference,[2]; [11],−0.29
O=c1[nH]c(=O)n([C@H]2C[C@H](O)[C@@H](CO)O2)cc1I [Idoxuridine],Cholesterol-free,[1]; [7],0.8751
same,Complete,[1]; [8],1.387
same,Difference,[1]; [9],0.51
same,Cholesterol-free media + simvastatin (0.04 μM),[2]; [22],1.124
same,Complete Media,[2]; [23],0.9636
same,Difference,[2]; [11],−0.16
O=C1C2CC3CC1CC(O)(C3)C2 [Idramantone],Difference,[1]; [24],−0.71
same,Cholesterol-free,[1]; [25],1.638
same,Complete,[1]; [26],0.9237
same,Cholesterol-free media + simvastatin (0.04 μM),[2]; [5],1.208
same,Complete Media,[2]; [10],1.085
same,Difference,[2]; [11],−0.12
CS(=O)(=O)Nc1cc2occ(NC=O)c(=O)c2cc1Oc1ccccc1 [Iguratimod],Cholesterol-free,[1]; [3],1.252
same,Complete,"[1]; NCI-H292 cells, complete media",0.9044
same,Difference,[1]; [4],−0.35
same,Cholesterol-free media + simvastatin (0.04 μM),[2]; [13],1.717
same,Complete Media,[2]; [14],1.252
same,Difference,[2]; [11],−0.47
COc1ccnc(C[S+]([O-])c2nc3cc(-n4cccc4)ccc3[nH]2)c1C (stereo not drawn) [Ilaprazole (sodium)],Cholesterol-free,[1]; [3],1.162
same,Complete,"[1]; NCI-H292 cells, complete media",0.7783
same,Difference,[1]; [4],−0.38
same,Cholesterol-free media + simvastatin (0.04 μM),[2]; [15],1.333
same,Complete Media,[2]; [16],1.428
same,Difference,[2]; [6],0.10
COc1ccnc(C[S+]([O-])c2nc3cc(-n4cccc4)ccc3[nH]2)c1C (stereo not drawn) [Ilaprazole],Difference,[1]; [17],−0.14
same,Cholesterol-free,[1]; [18],1.326
same,Complete,[1]; [10],1.19
same,Cholesterol-free media + simvastatin (0.04 μM),[2]; [13],1.567
same,Complete Media,[2]; [14],1.084
same,Difference,[2]; [11],−0.48
COc1cc(C(C)=O)ccc1OCCCN1CCC(c2noc3cc(F)ccc23)CC1 [Iloperidone],Difference,[1]; [12],−0.06
same,Complete,[1]; [8],0.8863
same,Cholesterol-free media + simvastatin (0.04 μM),[2]; [5],0.9523
same,Complete Media,[2]; [10],1.134
same,Difference,[2]; [6],0.18
CC#CCC(C)[C@H](O)/C=C/[C@@H]1[C@H]2C/C(=C/CCCC(=O)O)C[C@H]2C[C@H]1O (stereo partly drawn) [Iloprost],Difference,[1]; [24],−0.58
same,Cholesterol-free,[1]; [25],1.473
same,Complete,[1]; [26],0.8944
same,Cholesterol-free media + simvastatin (0.04 μM),[2]; [22],1.189
same,Complete Media,[2]; [23],0.9963
same,Difference,[2]; [11],−0.19
Cc1ccc(NC(=O)c2ccc(CN3CCN(C)CC3)cc2)cc1Nc1nccc(-c2cccnc2)n1 [Imatinib],Cholesterol-free,[1]; [3],1.28
same,Complete,"[1]; NCI-H292 cells, complete media",0.9175
same,Difference,[1]; [4],−0.36
same,Cholesterol-free media + simvastatin (0.04 μM),[2]; [19],1.214
same,Complete Media,[2]; [20],1.199
same,Difference,[2]; [21],−0.01
Cc1nccn1CCC(C(N)=O)(c1ccccc1)c1ccccc1 [Imidafenacin],Cholesterol-free,[1]; [7],0.8368
same,Complete,[1]; [8],1.001
same,Difference,[1]; [9],0.16
same,Cholesterol-free media + simvastatin (0.04 μM),[2]; [19],1.409
same,Complete Media,[2]; [20],1.383
same,Difference,[2]; [21],−0.03
CCOC(=O)[C@H](CCc1ccccc1)N[C@@H](C)C(=O)N1C(=O)N(C)C[C@H]1C(=O)O [Imidapril (hydrochloride)],Cholesterol-free,[1]; [7],0.9489
same,Complete,[1]; [8],1.458
same,Difference,[1]; [9],0.51
same,Cholesterol-free media + simvastatin (0.04 μM),[2]; [13],1.282
same,Complete Media,[2]; [14],0.8523
same,Difference,[2]; [11],−0.43
C[C@@H](O)[C@H]1C(=O)N2C(C(=O)O)=C(SCCN=CN)C[C@H]12 [Imipenem monohydrate],Difference,[1]; [12],−0.03
same,Cholesterol-free,[1]; [7],1.1
same,Complete,[1]; [8],1.066
same,Cholesterol-free media + simvastatin (0.04 μM),[2]; [19],0.9916
same,Complete Media,[2]; [20],0.9548
same,Difference,[2]; [21],−0.04
CN(C)CCCN1c2ccccc2CCc2ccccc21 [Imipramine (hydrochloride)],Difference,[1]; [12],−0.21
same,Cholesterol-free,[1]; [3],1.052
same,Complete,"[1]; NCI-H292 cells, complete media",0.8395
same,Cholesterol-free media + simvastatin (0.04 μM),[2]; [5],0.9417
same,Complete Media,[2]; [10],0.8694
same,Difference,[2]; [11],−0.07
CC(C)Cn1cnc2c(N)nc3ccccc3c21 [Imiquimod (hydrochloride)],Cholesterol-free,[1],0.8815
same,Complete,[1],1.16
same,Difference,[1],0.28
same,Cholesterol-free media + simvastatin (0.04 μM),[2],1.323
same,Complete Media,[2],1.16
same,Difference,[2],−0.16
CC(C)Cn1cnc2c(N)nc3ccccc3c21 [Imiquimod],Cholesterol-free,[1],0.6962
same,Complete,[1],1.326
same,Difference,[1],0.63
same,Cholesterol-free media + simvastatin (0.04 μM),[2],1.141
same,Complete Media,[2],0.8713
same,Difference,[2],−0.27
CCCN1CC(c2ccc(S(C)(=O)=O)cc2)=C(c2ccc(C)cc2)C1=O [Imrecoxib],Difference,[1]; [24],−0.54
same,Cholesterol-free,[1]; [25],1.763
same,Complete,[1]; [26],1.221
same,Cholesterol-free media + simvastatin (0.04 μM),[2]; [19],1.183
same,Complete Media,[2]; [20],1.141
same,Difference,[2]; [21],−0.04
